Measured values as given in patent US7524980B2, “Vitamin D3 lactam derivative” (Teijin Pharma Limited, priority 2003, dated 2009).

Test system: HL-60 cell
Experiment: Vitamin D3 antagonist effect: suppression of HL-60 cell differentiation (NBT-reducing activity) induced by 1α,25-dihydroxyvitamin D3
Format: cell-based
Conditions: simultaneous treatment with 1α,25-dihydroxyvitamin D3 1×10^−8 M; compound 1×10^−7 to 3×10^−6 M; 4 days; read-out: IC50 (suppression of NBT-reducing activity induction)
Excerpt: (1) HL-60 cell line which had been purchased from a cell bank (Japanese Cancer Research Resource Bank, Cell No: JCRB0085) was used. The cell line was stored as a frozen storage stock to prevent cell characteristic changes attributable to successive cultivations. Prior to the initiation of experiments, the cells were defrosted and successive culturing was stared. For the experiments, cells whose successive culturing was from one month to about a half year were used. The successive culturing was carried out by centrifugally collecting cells which were in the state of suspension culture, and diluting the collected cell concentrate with a fresh culture medium at a ratio of about 1/100 (1-2×10^4 cells/ml). As the culture medium, an RPMI-1640 medium containing 10% fetal bovine serum was used.
(2) The cells which were under successive culturing in the above process (1) were centrifugally collected, and they were dispersed in a culture medium at the cell concentration of 2×10^4 cells/ml. […]
(3) As the parameter of differentiation inducing effect on HL-60 cells, the induction of nitro blue tetrazolium (henceforth, NBT)-reducing activity was used. The NBT-reducing activity was determined according to the following procedure. […] After air drying, it was stained with Kernechrot, and the ratio of the positive cells of NBT reduction activity was determined under an optical microscope. […]

IC50: < 100 nM
SMILES: C=C1C(=CC=C2CCCC3(C)C2CCC3C(C)CC2CC(C)(O)C(=O)N2CCc2ccccc2)CC(O)CC1O (stereo not drawn) [Compound No. 61a, 1α,25-dihydroxyvitamin D3-26,23-lactam-N-(2-phenethyl)]
